Entries after “also recorded” stand apart in the source; their conditions may differ.
Columns and labels:
E. coli [1] = assay: In vivo transcription assay (tet-inducible mCherry); type: cell-based, Escherichia coli; conditions: 1-hour pre-treatment with 10 μg/mL H2A, 2 μM LL-37 or both; anhydrotetracycline 1 hour
Description: To determine how histone entry into the bacterial cell impacts transcription, MAL190 was cultured to mid-exponential phase, diluted 1:20 in MinA minimal medium, treated with 10 μg/mL Histone H2A and/or 2 μM LL-37, incubated for 1 hour, and induced for transcription using 50 ng/mL of anhydrotetracycline. The fluorescence of mCherry was measured after 1 hour using fluorescence microscopy.

E. coli [2] = type: cell-based, Escherichia coli; conditions: 1 mM magnesium; 10 μg/mL H2A, 2 μM LL-37, 10 μM MAG2, 1 μg/mL PMB, 10 μg/mL Kan, 10 μg/mL Cam, alone or combined
Description: Growth curve experiments were performed using a Synergy HTX multi-mode plate reader and sterile, tissue-culture treated, clear bottom, black polystyrene 96-well microplates (Corning). The temperature setpoint was 37° C. and preheated before beginning measurements. Each well contained 200 μL of total bacterial solution. For experiments performed with stationary phase bacteria, overnight cultures of bacteria were grown overnight to saturation, diluted 1:1000 into minimal medium with 1 μM or 1 mM MgSO4, and supplemented with H2A, LL-37, kanamycin, chloramphenicol, or polymyxin B. For experiments performed with exponential phase bacteria, overnight cultures of bacteria were sub-cultured in fresh minimal medium containing 1 mM MgSO4 and grown to an optical density at 600 nm (OD600) of 0.2. Exponential-phase bacteria were diluted 1:20 into fresh minimal medium with 1 μM or 1 mM MgSO4, and supplemented with H2A, LL-37, magainin-2, kanamycin, chloramphenicol, or polymyxin B. After adding antimicrobial agents, bacterial cultures were immediately added to the 96-well microplates for growth measurements. Growth curves were constructed by taking measurements every 15 minutes for up to 48 hours. Shaking was set to continuous orbital, with a frequency of 282 cpm (3 mm). The read speed was normal, with a 100 msec delay, and 8 measurements per data points.

E. coli [3] = assay: Timelapse of E. coli recovery and time course of membrane healing (CFP, PI); type: cell-based, Escherichia coli; conditions: then washed
Description: To quantify the time-course of recovery in E. coli treated with LL-37 alone or with the synergistic combination of LL-37 and H2A, MAL204 was cultured to mid-exponential phase in MinA minimal medium, added 1 μM LL-37 or 1 μM LL-37 with 10 μg/mL H2A, and incubated for 1 hour. The solution was filtered through a 0.22 μm filter to remove excess LL-37 and H2A and cells were resuspended in fresh minimal medium. Cells were immobilized on a 1% agarose pad and imaged over an hour time period.
To quantify the time-course of membrane repair in bacteria treated with H2A alone, AMPs alone, or the synergistic combination of AMPs and H2A, MAL204 was grown to mid-exponential phase in MinA minimal medium, diluted 1:20 with 10 μg/mL H2A, 1 μM LL-37, 1 μM LL-37 with 10 μg/mL H2A, 10 μM MAG2, or 1 μM MAG2 with 10 μg/mL H2A, and incubated for 1 hour. […] Cells were allowed to recover for 0, 30, 60 minutes before the addition of 30 μM propidium iodide for 15 minutes prior to performing fluorescence microscopy. Intracellular propidium iodide fluorescence and CFP fluorescence were quantified. To quantify the time-course of membrane repair in bacteria treated with H2A in low and physiological environments, MAL204 was grown to mid-exponential phase, diluted 1:20 into minimal media with 1 μM or 1 mM MgSO4, with or without 10 μg/mL H2A, and incubated for 3 hours. […]

E. coli [4] = assay: Fluorescent histone and fluorescent LL-37 uptake in E. coli; type: cell-based, Escherichia coli; conditions: 1 hour; for AF-H2A uptake (cellular fluorescence): 10 μg/mL AF-H2A alone or with 10 μg/mL Cam, 50 μg/mL Kan, 2 μM LL-37, 1 μg/mL PMB or 10 μM MAG2, 1 mM magnesium
Description: E. coli strain MG1655 or S. aureus strain RN4220 was cultured to an OD600 of 0.2, and diluted 1:20 into fresh minimal medium containing 1 mM MgSO4. H2A uptake in E. coli was measured by adding 10 μg/mL AF-H2A (1% Alexa Fluor-labeled H2A mixed with 99% unlabeled H2A) and 10 μg/mL Cam, 50 μg/mL Kan, 2 μM LL-37, 1 μg/mL PMB, or 10 μM MAG2, incubating for 1 hour, and analyzing using fluorescence microscopy. H2A uptake in S. aureus was measured using same concentrations of AF-H2A and LL-37. To measure uptake in low ionic conditions, E. coli was grown to OD600 of 0.2 in minimal medium containing 1 mM MgSO4, and diluted 1:20 into fresh minimal medium containing 1 μM or 1 mM MgSO4. H2A uptake in E. coli was measured by adding 10 μg/mL AF-H2A (1% Alexa Fluor-labeled H2A mixed with 99% unlabeled H2A), incubating for up to 3 hours, and analyzing using fluorescence microscopy. LL-37 uptake in both bacteria was measured by adding 1 μM fluorescently-labeled LL-37 (1% 5-FAM-LC-LL-37 (Anaspec) mixed with 99% unlabeled LL-37) or additionally with 10 μg/mL unlabeled H2A, incubating for 1 hour, and imaging using fluorescence microscopy. Time-lapse measurements of LL-37 uptake in E. coli were performed by adding 2 μM fluorescently-labeled LL-37 (3% 5-FAM-LC-LL-37 mixed with 97% unlabeled LL-37) or additional 10 μg/mL unlabeled H2A, immobilizing on agarose pads, and imaging using fluorescence microscopy. Cell membranes were visualized by adding 1.6 μM FM4-64 (MilliporeSigma, Burlington, Mass.), immobilizing on agarose pads, and imaging using fluorescence microscopy.

E. coli [5] = conditions: E. coli after 12 hours; reported (ref. 36); cited from earlier work
E. coli [6] = assay: Cell aggregate size and cell size analysis; type: cell-based, Escherichia coli
Description: MG1655 were cultured to an OD600 of 0.2, diluted 1:20 into fresh MinA minimal medium, treated with 0-4 μM LL-37 or 0-100 μg/mL H2A, and incubated for 1 hour. Cells were immobilized on an agarose pad using, imaged using phase contrast microscopy, and analyzed using our own custom-written image analysis tools^67,68. version 1.1 that was written in Matlab (Version R2017b; Mathworks, Natick, Mass.). See ‘Code Availability’ section below to download code. The total pixel area of each individual cell was determined by computing the mask area and converting from pixels to μm^2 by multiplying the mask area by a factor of 0.00422 μm^2/pixel to account for the microscope camera pixel size and objective magnification.

E. coli [7] = assay: Chromosomal analysis using SYTOX and HupA-mRuby2; type: cell-based, Escherichia coli; conditions: 10 μg/mL H2A, 2 μM LL-37 or both; 3 hours
Description: MG1655 or XL-1 Blue expressing HupA-mRuby2 was cultured to OD600 of 0.2, diluted 1:20 into fresh MinA minimal medium, and treated with 2 μM LL-37, 10 μg/mL H2A or both LL-37 and H2A for 30 minutes. For SYTOX visualization, MG1655 were stained with 3 uM SYTOX Green nucleic acid stain (ThermoFisher, Waltham, Mass.) for 10 minutes. Cells were immobilized on agarose pads containing 2 uM LL-37, 10 μg/mL H2A, or both LL-37 and H2A, and remained on the pad for 3 hours before imaging using the fluorescence microscopy. For SYTOX analysis, pads additionally contained 5 uM SYTOX Green. Raw images were analyzed through principal component analysis using our own custom-written image analysis tools^67,68 version 1.1 and modified in Matlab (Version R2017b; Mathworks, Natick, Mass.). See ‘Code Availability’ section below for code. Individual cells were identified in phase contrast images using canny edge detection and using SuperSegger^70. […] The covariances between corresponding pixels of different cells were computed using the 16 bit intensity values from the rotated and resized fluorescence images and for the same images rotated by an additional 180 degrees. […] The size of each bin was determined by subtracting the minimum principal component score from the maximum principal component score and dividing that by the number of bins along that principal component. […]

E. coli [8] = assay: SEM imaging of E. coli; type: cell-based, Escherichia coli; conditions: 10 μg/mL H2A, 1 μM LL-37 or both; 1 hour; 1 mM magnesium
Description: MG1655 was cultured to an OD600 of 0.2, diluted 1:20, and supplemented with 10 μg/mL H2A and/or 1 μM LL-37. Cells were treated for 1 hour and added to a glass bottomed petri dish for 15 minutes. Due to lower levels of adhesion, control cells were not diluted 1:20 and were incubated in the glass-bottomed petri dish for 45 minutes. Media was removed and 4% paraformaldehyde (PFA) was added for 20 minutes to fix bacteria. Dehydration was performed using serial ethanol dilutions. The fixed and dehydrated samples were coated with 10 nm of iridium using an ACE600 sputter coater (Leica Microsystems, Buffalo Grove, Ill.). Bacteria and surfaces were then characterized using a FEI Magellan 400 XHR Scanning Electron Microscope (FEI Company, Hillsboro, Oreg.) at a 45° tilt angle with an acceleration voltage of 3 kV.

E. coli genomic DNA = assay: Non-denaturing nucleic acid PAGE; type: binding, Escherichia coli; conditions: 1 μg DNA with 0-1.4 μg H2A or LL-37
Description: Overnight MG1655 cultures were grown to saturation in Minimal. DNA purification was performed using a Miniprep kit (Qiagen, Germantown, Md.). A three-second sonication step was performed after lysis to isolate genomic DNA.
10 μL mixtures containing 1 μg purified DNA from MG1655 were incubated with 0-1.4 μg Histone H2A or LL-37 for 25 minutes at 25° C. Gel loading sample buffer (5×, Bio-Rad, Hercules, Calif.) was added to a final concentration of 1× and the products were separated by native PAGE on a 5% TBE gel (Bio-Rad, Hercules, Calif.) at 100 V for 60 minutes. The gel was stained with 1×SYBR safe (Invitrogen, Carlsbad, Calif.) in TBE buffer^71 for 30 minutes before visualization using a EOS Rebel T5 DSLR camera with an f/3.5-5.6 18-55 mm lens (Canon, Huntington, N.Y.) and a DR46B Transilluminator (Clare Chemical, Dolores, Colo.).

LL-37: human cathelicidin antimicrobial peptide LL-37 (Anaspec)
mCherry fluorescence (transcription induction) (E. coli [1]): little effect on mCherry fluorescence
E. coli growth (growth rate, lag time) (E. coli [2]): decreased the growth rate and slightly extended the lag time
CFP fluorescence / growth during 1-hour recovery period (E. coli [3]; 1-hour treatment with 10 μg/mL H2A, 1 μM LL-37, 10 μM MAG2, alone or combined): resumed growth and division and retained expression of CFP; also recorded: CFP fluorescence increased or remained the same
PI fluorescence during 1-hour recovery (E. coli [3]; 1-hour treatment with H2A, LL-37, MAG2, alone or combined): significantly lower
AF-H2A uptake (cellular fluorescence) (E. coli [4]): significantly enhanced AF-H2A uptake
LL-37 uptake (5-FAM-LL-37 fluorescence) (E. coli [4]; fluorescently-labeled LL-37 alone or with 10 μg/mL H2A): Fluorescence was observed in the cytoplasm
bulk minimum inhibitory concentration (MIC) (E. coli [5]): 2 µM
aggregation of cells (E. coli [6]; H2A or LL-37, 1 hour): did not induce aggregation
cell size (E. coli [6]; LL-37 alone, indicated concentrations, 1 hour): significant reduction in cell size
HupA-mRuby2 localization (E. coli [7]): condensed the fluorescence near the center of the cell
chromosome localization pattern (Sytox Green) (E. coli [7]): no significant change in localization
cell morphology by SEM (E. coli [8]): few cell morphological differences
migration / retention of E. coli DNA in gel (E. coli genomic DNA): less retention of bacterial DNA

O=C(N[C@H](CO)[C@H](O)c1ccc([N+](=O)[O-])cc1)C(Cl)Cl [chloramphenicol, reference compound]
E. coli growth (growth rate, lag time) (E. coli [2]): increased the growth lag time
AF-H2A uptake (cellular fluorescence) (E. coli [4]): did not induce AF-H2A uptake

polymyxin B [PMB, reference compound]
E. coli growth (growth rate, lag time) (E. coli [2]): slightly inhibited growth
AF-H2A uptake (cellular fluorescence) (E. coli [4]): significantly enhanced AF-H2A uptake

From US20220265766A1, “ANTIMICROBIAL THERAPY THROUGH THE COMBINATION OF PORE-FORMING AGENTS AND HISTONES” (THE REGENTS OF THE UNIVERSITY OF CALIFORNIA, priority 2019, published 2022)
